The source of these data is PubChem BioAssay AID1996.

The structures appear in SMILES notation. ≈ marks a conversion by molar mass, not a printed value.

For the data set the following is noted: buffer; pH 7.4; 200.0 µM.
Regarding `COc1ccc(NC(=O)c2nn(C)cc2[N+](=O)[O-])cc1`, the kinetic solubility was above 41.4 µg/mL. Under `c1ccc2c(NCCc3c[nH]c4ccccc34)c3ccccc3nc2c1` stands above 50.6 µg/mL; under `Cc1cc([N+](=O)[O-])ccc1NC(=S)NC1CCCC1`, 21.9 µg/mL (≈ 78.4 µM). To `C=CCn1ccc2c([N+](=O)[O-])cccc2c1=O` belongs 30.2 µg/mL (≈ 131 µM). To `CN1CCN(c2ccc(NC(=O)c3ccccc3)cc2)CC1` belongs above 44.3 µg/mL. The molecule `O=C(NCc1ccccc1)c1c[nH]c2ccc(F)cc2c1=O` displayed a solubility (kinetic) of 9.1 µg/mL (≈ 30.7 µM). Under `Cc1cc(C)n(-c2ccc(C(=O)N3CC(C)OC(C)C3)cc2)n1` (stereo unspecified) stands above 47 µg/mL. The molecule `N#C/C(=C\c1ccccc1Cl)C(=O)Nc1ccccn1` registered a solubility (kinetic) of 37.7 µg/mL (≈ 133 µM). To `COc1cc(NC(=O)CSc2nncn2C)cc(OC)c1OC` belongs above 50.8 µg/mL; to `O=S(=O)(CCc1ccncc1)Cc1ccc2c3c(cccc13)CC2`, 11.8 µg/mL (≈ 35 µM). Take `COc1cccc(C(=O)OCC(=O)Nc2cc(C)on2)c1OC`: the solubility (kinetic) is above 48 µg/mL. To `Cc1ccc(NC(=O)CN2CCCCCC2)cc1[N+](=O)[O-]` belongs 1.2 µg/mL (≈ 4.12 µM). Under `Cc1sc2ncn(-c3ccccc3)c(=O)c2c1C` stands 5.6 µg/mL (≈ 21.8 µM); under `CC(C)c1ccc(N2C(=O)C(Cl)=C(N3CCOCC3)C2=O)cc1`, 9.2 µg/mL (≈ 27.5 µM).

Take `Cc1sc2nc(C(C)C)nc(SCC(=O)NC3CC3)c2c1C`: the kinetic solubility amounted to 1.5 µg/mL (≈ 4.47 µM). This solubility kinetic is about 6.1-fold lower than that of the molecule before. The molecule `CCCc1cc(=O)[nH]c(SCC(=O)N2c3ccccc3NC(=O)C2(C)C)n1` showed a solubility (kinetic) of 57.4 µg/mL (≈ 149 µM).

For the molecule `COc1ccccc1-n1c(CCC(=O)O)ccc1-c1ccccc1`, the kinetic solubility is above 48.2 µg/mL. The molecule `CSc1ncccc1C(=O)NC1CCN(Cc2ccccc2)CC1` showed a solubility (kinetic) of 48.1 µg/mL (≈ 141 µM). To `O=C(CN1c2cccc3cccc(c23)S1(=O)=O)NCCc1ccccc1` belongs 2 µg/mL (≈ 5.46 µM); to `COc1ccc2[nH]c(C(=O)Nc3ccc(F)cc3Br)cc2c1`, below 0.4 µg/mL; to `Nc1cc2nc3ccccc3nc2cc1N`, 5.1 µg/mL (≈ 24.3 µM).

`O=C(Nc1cc(C(F)(F)F)ccc1N1CCOCC1)c1cnccn1` registered a kinetic solubility of 1.1 µg/mL (≈ 3.12 µM).

Molecule `COc1ccc(C2CC(C)=C(C#N)S(=O)(=O)C2C#N)cc1` (stereo unspecified) registered a kinetic solubility above 45.4 µg/mL.

The molecule `CN(C)C(=O)Oc1cccc([N+](C)(C)C)c1.[Br-]` gave a kinetic solubility above 45.5 µg/mL. `Cc1cccc(C(=O)Nc2sc3c(c2C(=O)O)CCCC3)c1` returned a solubility (kinetic) of 6.9 µg/mL (≈ 21.9 µM).

`Cl.c1ccc(NCc2cccc3ccccc23)nc1` had a solubility (kinetic) of 4.1 µg/mL. To `CSc1sc(C(=O)NCC2CC2)cc1S(=O)(=O)C(C)C` belongs 49.3 µg/mL (≈ 148 µM); to `CC(=O)N(C(C)=O)c1c(N2CCCC2)c2ccccc2oc1=O`, 46.1 µg/mL (≈ 147 µM).

Consider `CC(=O)c1ccc(NC(=O)COC(=O)CCC2CCCC2)cc1`, for which the solubility (kinetic) stood at 17 µg/mL (≈ 53.6 µM). Against the preceding molecule, the solubility kinetic is about 2.7-fold lower. To `Cc1cc(C)c(S(=O)(=O)N2CCc3ccccc32)c(C)c1` belongs below 0.6 µg/mL. Under `Cc1ccc2c(c1)N(CC(=O)Nc1ccccc1F)C(=O)CO2` stands 0.7 µg/mL (≈ 2.23 µM). `COc1cc(C=O)ccc1Oc1ccc(S(=O)(=O)N2CCOCC2)cc1[N+](=O)[O-]` had a kinetic solubility of 28.7 µg/mL (≈ 67.9 µM). To `CCC(C(=O)N1CCN(c2ncccn2)CC1)c1ccccc1` (stereo unspecified) belongs 41.7 µg/mL (≈ 134 µM); to `O=c1[nH]cc(N2CCCCCC2)c(=O)[nH]1`, above 31.4 µg/mL; to `O=C(Nc1ccc2c(c1)CCC2)Nc1ccccc1Cl`, below 0.3 µg/mL. Under `Cc1ccnc(NCc2cccc3ccccc23)c1.Cl` stands 15.8 µg/mL; under `CCOC(=O)c1ccccc1NC(=O)CSc1nc2ccccc2c(=O)n1CCCN1CCOCC1`, 18.6 µg/mL (≈ 36.4 µM). In turn, `CSc1ccccc1NC(=O)Cc1ccccc1[N+](=O)[O-]` yielded a solubility (kinetic) of 5.7 µg/mL (≈ 18.9 µM). Under `CC(=O)n1c2ccccc2c2nc3ccccc3nc21` stands 1.1 µg/mL (≈ 4.21 µM); under `C/C(CC(=O)Nc1cccc(F)c1)=N\NC(=O)c1ccncc1`, above 47.1 µg/mL; under `COCCNc1nnc(Cc2ccc(OC)c(OC)c2)c(=O)[nH]1`, above 48.1 µg/mL. To `O=[N+]([O-])c1ccc(SCCc2ccccn2)cc1` belongs 30.6 µg/mL (≈ 118 µM). Molecule `O=C(CCN1C(=O)C2C3C=CC(C3)C2C1=O)N1CCCCC1` (stereo unspecified) yielded a solubility (kinetic) above 45.4 µg/mL.

In turn, `COc1ccc(NC(=S)N2c3ccccc3CC2C)cc1OC` (stereo unspecified) displayed a kinetic solubility of 42.4 µg/mL (≈ 129 µM). As to `CC(C)C(=O)NC(=S)Nc1ccc(S(=O)(=O)NC2CCCCC2)cc1`, the kinetic solubility is 1 µg/mL (≈ 2.61 µM). To `COCCNC(=O)c1ccccc1NC(=O)Nc1ccccc1` belongs above 47 µg/mL; to `COc1ccc(C(=O)NC2CCSc3ccccc32)cc1F` (stereo unspecified), 2.9 µg/mL (≈ 9.14 µM). Under `COc1ccc(OCC(O)CN2CCCC2)cc1` (stereo unspecified) stands 30.7 µg/mL (≈ 122 µM).

The molecule `Cc1cccc(S(=O)(=O)NCCc2ccccc2)c1` displayed a solubility (kinetic) of 35.7 µg/mL (≈ 130 µM).

`COc1ccc(C(=O)NCC2CCCO2)cc1OC` (stereo unspecified) came in with a kinetic solubility of 35.7 µg/mL (≈ 135 µM).

`CSc1ncccc1C(=O)NC1CCCCCCC1` showed a solubility (kinetic) of 21.7 µg/mL (≈ 77.9 µM).

Broadly, the kinetic solubility is the concentration staying in solution when a stock, usually in DMSO, is diluted into the medium.
